Calls of active or inactive are those of the source. How the calls were made is not given here.

This assay deals with Tyrosine-protein kinase JAK2 (Homo sapiens) (UniProt O60674). Kind of assay: NCGC Pharmaceutical Collection primary HTS, Janus kinase 2 (Homo sapiens) inhibitors, biochemical, LANCE Ultra TR-FRET (AID 1117354). To be noted: LANCE Ultra TR-FRET kinase assay, at 20 µM (top of the series).
Sequence of Tyrosine-protein kinase JAK2 (Homo sapiens) (O60674 whole entry, looked up): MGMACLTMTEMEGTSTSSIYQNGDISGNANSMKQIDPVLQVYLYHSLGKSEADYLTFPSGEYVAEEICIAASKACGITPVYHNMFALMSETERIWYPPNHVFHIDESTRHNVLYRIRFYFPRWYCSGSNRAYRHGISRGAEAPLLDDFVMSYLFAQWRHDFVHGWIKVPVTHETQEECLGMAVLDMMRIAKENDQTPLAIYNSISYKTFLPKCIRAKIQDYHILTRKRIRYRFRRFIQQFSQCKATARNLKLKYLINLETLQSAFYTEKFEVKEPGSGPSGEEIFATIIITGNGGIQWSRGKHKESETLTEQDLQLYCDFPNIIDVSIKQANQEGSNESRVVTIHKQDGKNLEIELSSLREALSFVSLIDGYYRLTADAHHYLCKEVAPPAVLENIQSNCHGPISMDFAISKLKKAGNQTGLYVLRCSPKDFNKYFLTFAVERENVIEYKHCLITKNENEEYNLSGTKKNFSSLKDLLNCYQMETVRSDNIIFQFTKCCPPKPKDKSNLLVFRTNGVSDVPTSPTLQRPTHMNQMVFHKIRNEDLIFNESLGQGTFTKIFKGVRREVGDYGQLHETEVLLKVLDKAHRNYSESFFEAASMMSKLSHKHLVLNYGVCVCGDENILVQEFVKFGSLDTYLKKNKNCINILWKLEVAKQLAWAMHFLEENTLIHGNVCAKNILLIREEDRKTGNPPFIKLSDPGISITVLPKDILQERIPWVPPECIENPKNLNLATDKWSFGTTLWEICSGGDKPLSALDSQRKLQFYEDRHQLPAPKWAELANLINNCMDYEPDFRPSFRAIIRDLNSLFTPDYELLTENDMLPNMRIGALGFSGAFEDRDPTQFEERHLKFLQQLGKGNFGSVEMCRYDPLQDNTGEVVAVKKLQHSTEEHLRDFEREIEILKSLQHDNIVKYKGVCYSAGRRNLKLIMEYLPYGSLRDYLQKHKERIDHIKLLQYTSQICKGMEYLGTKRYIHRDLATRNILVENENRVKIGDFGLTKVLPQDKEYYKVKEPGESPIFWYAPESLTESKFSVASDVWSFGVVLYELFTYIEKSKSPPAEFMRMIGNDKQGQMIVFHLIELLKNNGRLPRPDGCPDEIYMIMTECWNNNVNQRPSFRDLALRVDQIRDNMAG
On to `CC(=O)[C@]1(O)Cc2c(O)c3c(c(O)c2[C@@H](O[C@H]2C[C@H](N)[C@H](O)[C@H](C)O2)C1)C(=O)c1ccccc1C3=O`, for which the inhibition (in general, the relative decrease from the control value, in per cent) was 29.1% (inactive).
With `O=c1[nH]c(=O)n([C@H]2C[C@H](O)[C@@H](CO)O2)cc1F`, the inhibition is -18.6% (inactive).
The value for `Oc1c(Cl)cc(Cl)cc1Sc1cc(Cl)cc(Cl)c1O` was -0.83% (inactive); that for `COc1ccc2cc1Oc1ccc(cc1)C[C@H]1c3c(cc4c(c3Oc3cc5c(cc3OC)CCN(C)[C@@H]5C2)OCO4)CCN1C` was 17.9% (inactive); that for `CCc1nc(N)nc(N)c1-c1ccc(Cl)cc1` was -6.66% (inactive).
The value for `CCCCCCCCCCCCCCCC[n+]1ccccc1` was 53.6%; that for `O=[N+]([O-])c1ccc(O)c2ncccc12` was 1.93% (inactive); that for `Cn1cnc([N+](=O)[O-])c1Sc1ncnc2nc[nH]c12` was -15.7% (inactive).
The result for `CC[C@]1(O)C[C@@H]2CN(CCc3c([nH]c4ccccc34)[C@@](C(=O)OC)(c3cc4c(cc3OC)N(C)[C@H]3[C@@](O)(C(=O)OC)[C@H](OC(C)=O)[C@]5(CC)C=CCN6CC[C@]43[C@@H]65)C2)C1` reads 5.49% (inactive); that for `Cc1cc(O)c2ccccc2c1O`, 19.2% (inactive); that for `S=c1nc[nH]c2nc[nH]c12`, 1.43% (inactive).
For the compound `COC(=O)Nc1nc2ccc(C(=O)c3cccs3)cc2[nH]1`, the inhibition is 12.9% (inactive).
The result for `CCN(CC)CCOc1ccc(/C(=C(\Cl)c2ccccc2)c2ccccc2)cc1` reads -4.05% (inactive).
For `Cc1cc(C)c(/C=C2\C(=O)Nc3ccccc32)[nH]1`, the inhibition is 68.5%.
The value for `CSc1ccc2c(c1)C(N1CCN(C)CC1)Cc1ccccc1S2` (centres undefined) was -4.22% (inactive).
The result for `C[n+]1c2cc(N)ccc2cc2ccc(N)cc21` (tested in a mixture with another compound) reads 8.06% (inactive).
The result for `CCN(CC)CCNC(=O)c1c(C)[nH]c(/C=C2\C(=O)Nc3ccc(F)cc32)c1C` reads 97.3%; that for `CNC(=O)c1cc(Oc2ccc(NC(=O)Nc3ccc(Cl)c(C(F)(F)F)c3)cc2)ccn1`, 63.2%; that for `C[C@@]12C(=O)OC(=O)[C@]1(C)C1CCC2O1`, -0.89% (inactive).
As to `COc1cc(NCc2ccc3nc(N)nc(N)c3c2C)cc(OC)c1OC`, the inhibition was 26.2% (inactive).
The value for `C=CC(=O)Nc1cc2c(Nc3ccc(F)c(Cl)c3)ncnc2cc1OCCCN1CCOCC1` was 68.2%.
The value for `COC(=O)Nc1nc2ccc(S(=O)c3ccccc3)cc2[nH]1` (centres undefined) was -7.42% (inactive); that for `Oc1c(Cl)cc(Cl)c2cccnc12` was -13.9% (inactive); that for `CC[C@@H]([C@H](C)O)n1ncn(-c2ccc(N3CCN(c4ccc(OC[C@@H]5CO[C@@](Cn6cncn6)(c6ccc(F)cc6F)C5)cc4)CC3)cc2)c1=O` was 10.5% (inactive).
Regarding `COc1ccc(-c2ccc3cc(C(=O)O)ccc3c2)cc1C12CC3CC(CC(C3)C1)C2`, the inhibition was 97.7%.
The result for `Cc1nc2ccc(CN(C)c3ccc(C(=O)N[C@@H](CCC(=O)O)C(=O)O)s3)cc2c(=O)[nH]1` reads 14.6% (inactive); that for `Cc1ccccc1C(=O)Nc1ccc(C(=O)N2CCCC(N(C)C)c3ccccc32)cc1` (centres undefined), 16% (inactive); that for `CCCCCCNC(=O)n1cc(F)c(=O)[nH]c1=O`, -3.52% (inactive).
The result for `CCCSc1ccc2nc(NC(=O)OC)[nH]c2c1` reads -0.03% (inactive); that for `COC(=O)c1nc(Cl)c(Cl)nc1N`, -6.75% (inactive).
The result for `COCc1c(C(C)C)nc(C(C)C)c(/C=C/[C@@H](O)C[C@@H](O)CC(=O)O)c1-c1ccc(F)cc1` reads -8.56% (inactive).
Turning to `Cc1ccc2nc(N)[nH]c(=O)c2c1Sc1ccncc1`, the inhibition is 16.7% (inactive).
The value for `CC[C@@]1(O)C(=O)OCc2c1cc1n(c2=O)Cc2c-1nc1ccccc1c2/C=N/OC(C)(C)C` was 12.1% (inactive); that for `CN1CC[C@H](c2c(O)cc(O)c3c(=O)cc(-c4ccccc4Cl)oc23)[C@H](O)C1` was 67.4%.
With `CCCN(CCC)C(=O)C(CCC(=O)OCCCN1CCN(CCOC(=O)Cc2c(C)n(C(=O)c3ccc(Cl)cc3)c3ccc(OC)cc23)CC1)NC(=O)c1ccccc1` (centres undefined), the inhibition was 12.5% (inactive).
The value for `CCN(CC)CCNc1ccc(CO)c2sc3ccccc3c(=O)c12` was 33.1% (inactive); that for `Cc1cc(C2CCCCC2)n(O)c(=O)c1` was -9.21% (inactive).
The value for `CC(C)(C)C1CCC(CC2=C(O)c3ccccc3C(=O)C2=O)CC1` (centres undefined) was -11.2% (inactive); that for `CCCCc1oc2ccccc2c1C(=O)c1cc(I)c(OCCN(CC)CC)c(I)c1` was 16.2% (inactive).
The value for `Cc1cc(=O)c2c(O)c3c(O)cc(=O)c4c3c3c(cc(O)c1c23)C(C)(C)C=4O` was 32.9% (inactive); that for `O=C(O)c1ccc(-n2nc(-c3ccccc3O)nc2-c2ccccc2O)cc1` was 44.5% (inactive); that for `Oc1c(I)cc(I)c2cccnc12` was -10.5% (inactive).
For `Cc1nc(N)nc(N)c1-c1ccc(Cl)c(Cl)c1`, the inhibition was -2.13% (inactive).
The value for `NC(=NCCCCCCN=C(N)/N=C(\N)Nc1ccc(Cl)cc1)/N=C(\N)Nc1ccc(Cl)cc1` was 0.31% (inactive).
The value for `Cc1ccc([N+](=O)[O-])[c]2c1[O][Hg]2` was 36.9% (inactive).
The value for `COC(=O)Nc1nc2ccc(C(=O)c3ccccc3)cc2[nH]1` was 25.8% (inactive); that for `CC(C)(C)C(=O)OCOP(=O)(COCCn1cnc2c(N)ncnc21)OCOC(=O)C(C)(C)C` was -9.81% (inactive).
Take `O=C(CCCCCCC(=O)Nc1ccccc1)NO`: the inhibition was -17.1% (inactive).
The value for `Cc1ccc(Nc2nccc(N(C)c3ccc4c(C)n(C)nc4c3)n2)cc1S(N)(=O)=O` was 81.8%.
With `COc1cc([C@@H]2c3cc4c(cc3[C@H](O)[C@H]3COC(=O)[C@H]23)OCO4)cc(OC)c1OC`, the inhibition is 7.37% (inactive).
In the case of `Nc1ccc2cc3ccc(N)cc3nc2c1`, the inhibition is -6.54% (inactive).
The result for `COC(=O)Nc1nc2ccc(Sc3ccccc3)cc2[nH]1` reads -7.45% (inactive); that for `O=c1[nH]c(=O)n([C@H]2C[C@H](O)[C@@H](CO)O2)cc1C(F)(F)F`, 14.7% (inactive).
With `COC(=O)[C@H]1[C@H]2C[C@@H]3c4[nH]c5cc(OC)ccc5c4CCN3C[C@H]2C[C@@H](OC(=O)/C=C/c2ccc(O)c(OC)c2)[C@@H]1OC`, the inhibition is 9.23% (inactive).
The value for `C=C(C)[C@H]1Cc2c(ccc3c2O[C@@H]2COc4cc(OC)c(OC)cc4[C@@H]2C3=O)O1` was 4.93% (inactive); that for `CCC(C)n1ncn(-c2ccc(N3CCN(c4ccc(OC[C@H]5CO[C@](Cn6cncn6)(c6ccc(Cl)cc6Cl)O5)cc4)CC3)cc2)c1=O` (some centres undefined) was 10.5% (inactive).
The result for `O=C(Nc1ccc([N+](=O)[O-])cc1Cl)c1cc(Cl)ccc1O` reads 16.5% (inactive); that for `COc1cc(-c2ccc(=O)[nH]n2)ccc1OC(F)F`, -10.1% (inactive).
The value for `COc1cccc2c1C(=O)c1c(O)c3c(c(O)c1C2=O)C[C@@](O)(C(C)=O)C[C@@H]3O[C@H]1C[C@H](N)[C@H](O)[C@H](C)O1` was 7.94% (inactive); that for `[O-][n+]1ccccc1SSc1cccc[n+]1[O-]` was -17.3% (inactive); that for `CCCCC1C(=O)N(c2ccccc2)N(c2ccc(O)cc2)C1=O` (centres undefined) was -4.57% (inactive).
`CC(C)C[C@H](NC(=O)[C@H](CCc1ccccc1)NC(=O)CN1CCOCC1)C(=O)N[C@@H](Cc1ccccc1)C(=O)N[C@@H](CC(C)C)C(=O)[C@@]1(C)CO1`: the inhibition is 5.34% (inactive).
With `COc1cc2nc(N3CCN(C(=O)c4ccco4)CC3)nc(N)c2cc1OC`, the inhibition is -17.8% (inactive).
The result for `CCC1=C[C@@H]2CN(C1)Cc1c([nH]c3ccccc13)[C@@](C(=O)OC)(c1cc3c(cc1OC)N(C)[C@H]1[C@@](O)(C(=O)OC)[C@H](OC(C)=O)[C@]4(CC)C=CCN5CC[C@]31[C@@H]54)C2` reads 1.76% (inactive); that for `CCCOc1ccc2nc(NC(=O)OC)[nH]c2c1`, -4.4% (inactive); that for `CC(=O)Oc1ccc(C2(c3ccc(OC(C)=O)cc3)Oc3ccccc3NC2=O)cc1`, 7% (inactive).
Turning to `COc1c(C)c2c(c(O)c1C/C=C(\C)CCC(=O)OCCN1CCOCC1)C(=O)OC2`, the inhibition was 8.22% (inactive).
The result for `CNC(=O)c1ccccc1Sc1ccc2c(/C=C/c3ccccn3)n[nH]c2c1` reads 94.5%; that for `O=c1c(-c2ccccc2)c1-c1ccccc1`, -9.18% (inactive).
The value for `CC[C@]1(O)C[C@H]2CN(CCc3c([nH]c4ccccc34)[C@@](C(=O)OC)(c3cc4c(cc3OC)N(C=O)[C@H]3[C@@](O)(C(=O)OC)[C@H](OC(C)=O)[C@]5(CC)C=CCN6CC[C@]43[C@@H]65)C2)C1` was 9% (inactive); that for `CN(C)c1ccc2nc3ccc(=[N+](C)C)cc-3sc2c1` was 13.3% (inactive).
The value for `O=C1c2c(O)ccc(O)c2C(=O)c2c(NCCNCCO)ccc(NCCNCCO)c21` was 43.4% (inactive); that for `COc1cc2c(c(OC)c1OC)-c1ccc(OC)c(=O)cc1[C@@H](NC(C)=O)CC2` was -10.4% (inactive).
For the compound `CCCCCCCCCCCCCC[N+](C)(C)C`, the inhibition is -1.09% (inactive).
The result for `COC(=O)Nc1nc2ccc(C(=O)C3CC3)cc2[nH]1` reads 21.4% (inactive); that for `O=C(CCl)c1ccc(Cl)cc1Cl`, -17.1% (inactive); that for `Nc1nc(=S)c2[nH]cnc2[nH]1`, 10.3% (inactive).
As to `Cc1nc(Nc2ncc(C(=O)Nc3c(C)cccc3Cl)s2)cc(N2CCN(CCO)CC2)n1`, the inhibition is 98.4%.
The value for `COc1ccc(-c2nc3ccc(C4=NNC(=O)CC4C)cc3[nH]2)cc1` (centres undefined) was -0.61% (inactive).

The values above are taken from PubChem BioAssay AID1117354 (Cheminformatics & Chemogenomics Research Group (CCRG), …, 2015).
